Laboratory results: EP0804400B1, “HYDROFORMYLATION OF A MULTI-COMPONENT FEED STREAM” (ExxonMobil Research and Engineering Company, priority 1995, dated 1996)
Read-outs that look alike come from different tables or passages of the source.

What was measured:
[1] = 0.1 MPa partial pressure, 22 °C; for Xi x 10^4: mol fraction; for Ci: molarity
Protocol: (§1) In the autoclave experiments the solvent was thoroughly degassed in the autoclave before the gas was charged without stirring. After a short temperature equilibration the pressure and temperature in the autoclave was recorded and then the solvent was stirred until no further pressure drop could be observed. From the known gas volume and pressure drop the amount of dissolved gas was calculated. In the ^1H NMR experiments either the solvent (propanal) or hexamethylbenzene served as an internal standard.

[2] = 0.1 MPa partial pressure
Protocol: as §1

[3] = cited from earlier work; for Xi x 10^4: mol fraction; for Ci: molarity
[4] = mol fraction of gas in liquid phase, solvent Tetraglyme containing 7.8 w.% PPh3, 20 °C
[5] = mol fraction, solvent Tetraglyme containing 7.8 w.% PPh3, 100 °C
[6] = molarity of gas in liquid phase, solvent Tetraglyme containing 7.8 w.% PPh3, 20 °C
[7] = molarity, solvent Tetraglyme containing 7.8 w.% PPh3, 100 °C
[8] = solvent 2-Methylbutanal, 30 °C, ref. e
[9] = solvent 2-Methylbutanal, 100 °C, ref. e
[10] = solvent Formaldehyde diethyl acetal, 30 °C, ref. g
[11] = solvent 1-Butyl acetate, 18 °C, ref. l
[12] = solvent 1-Propyl acetate, 18 °C, ref. l
[13] = solvent 2-Ethylhexanol-1, 100 °C, ref. w
[14] = solvent 2-Propyl acetate, 18 °C, ref. l
[15] = solvent Ethyl acetate, 18 °C, ref. l
[16] = solvent Ethylene glycol dimethyl (ether), 100 °C, ref. t
[17] = solvent Methyl acetate, 18 °C, ref. l
[18] = solvent Methyl butanoate, 18 °C, ref. l
[19] = solvent Methyl propanoate, 18 °C, ref. l
[20] = solvent Propionaldehyde, 100 °C, ref. k
[21] = solvent cell prints 'ether' (wrapped line), 100 °C, ref. v

In the case of `C#C` [Acetylene], the “Xi x 10^4” value ([1]; solvent Propanal) is reported as 402.0, the Ci ([1]; solvent Propanal) is reported as 557.7 mmol/L and the “Xi x 10^4” value [2, 4] is reported as 1224.0. The “Xi x 10^4” value [2, 5] was 242.0, the “Xi x 10^4” value ([2]; mol fraction, solvent Toluene, 20 °C) was 246.7 and the “Xi x 10^4” value ([2]; mol fraction, solvent Toluene, 100 °C) was 178.0. For the same compound, the Ci [2, 6] was 577.0 mmol/L, the Ci [2, 7] was 103.0 mmol/L and the Ci ([2]; molarity, solvent Toluene, 20 °C) was 220.6 mmol/L. For the same compound, the Ci ([2]; molarity, solvent Toluene, 100 °C) was 147.7 mmol/L.

For `[C-]#[O+]` [Carbon monoxide], the “Xi x 10^4” value [2, 4] was 11.3, the “Xi x 10^4” value [2, 5] was 34.6 and the Ci [2, 6] was 4.9 mmol/L. The Ci [2, 7] was 14.2 mmol/L, the “Xi x 10^4” value [3, 8] was 10.96 and the “Xi x 10^4” value [3, 9] was 13.93.

For `CC` [Ethane], the “Xi x 10^4” value [3, 10] is listed as 214.00 and the Ci [3, 10] is listed as 201.89 mmol/L.

With `C=C` [Ethylene] the “Xi x 10^4” value ([1]; solvent Propanal) was 115.0, the Ci ([1]; solvent Propanal) was 159.6 mmol/L and the “Xi x 10^4” value [2, 4] was 134.0. For the same compound, the “Xi x 10^4” value [2, 5] was 76.0, the Ci [2, 6] was 60.0 mmol/L and the Ci [2, 7] was 32.6 mmol/L. For the same compound, the “Xi x 10^4” value [3, 10] was 185.00 and the Ci [3, 10] was 174.53 mmol/L.

For `[HH]` [Hydrogen], the “Xi x 10^4” value ([1]; solvent d^8-Toluene) was 3.5, the “Xi x 10^4” value [2, 4] was 5.1 and the “Xi x 10^4” value [2, 5] was 7.3. The Ci [2, 6] was 2.2 mmol/L, the Ci [2, 7] was 3.0 mmol/L and the “Xi x 10^4” value [3, 11] was 4.29. The “Xi x 10^4” value [3, 12] was 4.15, the “Xi x 10^4” value [3, 13] was 5.85 and the “Xi x 10^4” value [3, 8] was 8.55. For the same compound, the “Xi x 10^4” value [3, 9] was 11.45, the “Xi x 10^4” value [3, 14] was 4.83 and the “Xi x 10^4” value [3, 15] was 3.46. The “Xi x 10^4” value [3, 16] was 6.20, the “Xi x 10^4” value [3, 10] was 5.37 and the “Xi x 10^4” value [3, 17] was 2.51. For the same compound, the “Xi x 10^4” value [3, 18] was 4.67, the “Xi x 10^4” value [3, 19] was 3.77 and the “Xi x 10^4” value [3, 20] was 5.95. The “Xi x 10^4” value [3, 21] was 6.58, the “Xi x 10^4” value ([3]; solvent printed 2-Ethylhexanol-1 (second line), 100 °C, ref. v) was 5.97 and the Ci [3, 11] was 3.64 mmol/L. The Ci [3, 12] was 3.99 mmol/L, the Ci [3, 13] was 3.45 mmol/L and the Ci [3, 14] was 4.64 mmol/L. The Ci [3, 15] was 3.84 mmol/L, the Ci [3, 16] was 5.32 mmol/L and the Ci [3, 10] was 5.07 mmol/L. For the same compound, the Ci [3, 17] was 3.30 mmol/L, the Ci [3, 18] was 4.49 mmol/L and the Ci [3, 19] was 4.19 mmol/L. The Ci [3, 21] was 3.89 mmol/L.

For `C` [Methane], the “Xi x 10^4” value [3, 10] is given as 37.40 and the “Xi x 10^4” value [3, 20] is given as 20.90.
